From PubChem BioAssay (NCI)
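Assay format: 96-well plates, 48-hour exposure. TGI is the concentration that stops growth completely.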

How the values were obtained:
Test in all cases: NCI anticancer screen, dose series, 48 h
SF-268 CNS = system: SF-268 CNS
OVCAR-8 ovarian = system: OVCAR-8 ovarian
M14 melanoma = system: M14 melanoma
TK-10 renal = system: TK-10 renal
NCI/ADR-RES ovarian = system: NCI/ADR-RES ovarian
EKVX NSCLC = system: EKVX NSCLC
SF-295 CNS = system: SF-295 CNS
NCI-H460 lung = system: NCI-H460 lung
T-47D breast = system: T-47D breast
SK-MEL-2 melanoma = system: SK-MEL-2 melanoma
SK-MEL-5 melanoma = system: SK-MEL-5 melanoma
NCI-H23 lung = system: NCI-H23 lung
ACHN renal = system: ACHN renal
DU-145 prostate = system: DU-145 prostate
RPMI-8226 leukemia = system: RPMI-8226 leukemia
PC-3 prostate = system: PC-3 prostate
OVCAR-4 ovarian = system: OVCAR-4 ovarian
K-562 leukemia = system: K-562 leukemia
HL-60(TB) leukemia = system: HL-60(TB) leukemia

SMILES | TGI (SF-268 CNS) [µM] | TGI (OVCAR-8 ovarian) [µM] | TGI (M14 melanoma) [µM] | TGI (TK-10 renal) [µM] | TGI (NCI/ADR-RES ovarian) [µM] | TGI (EKVX NSCLC) [µM] | TGI (SF-295 CNS) [µM] | TGI (NCI-H460 lung) [µM] | TGI (T-47D breast) [µM] | TGI (SK-MEL-2 melanoma) [µM] | TGI (SK-MEL-5 melanoma) [µM] | TGI (NCI-H23 lung) [µM] | TGI (ACHN renal) [µM] | TGI (DU-145 prostate) [µM] | TGI (RPMI-8226 leukemia) [µM] | TGI (PC-3 prostate) [µM] | TGI (OVCAR-4 ovarian) [µM] | TGI (K-562 leukemia) [µM] | TGI (HL-60(TB) leukemia) [µM]
COc1cc2c(NCCN(C)C)nc3c4cc5c(cc4ccc3c2cc1OC)OCO5 | 8.98 | 6.97 | 7.4 | 5.88 | 8.31 | 8.25 | 5.7 | 5.38 | 11.5 | 9.94 | 5.87 | 6.32 | 4.01 | 7.32 | 17.2 | 8.7 | 7.91 | 7.49 | 9.52
O=C1C(=Cc2cccc(Cl)c2)N=C(c2ccccc2)N1n1c(-c2ccccc2)nc2ccccc2c1=O | > 100 | > 100 | 54.5 | > 100 | > 100 | > 100 | > 100 | > 100 | > 100 | > 100 | > 100 | 68.6 | > 100 | > 100 | > 100 | > 100 | > 100 | > 100 | > 100
CC(=O)NC1C(O)C(O)C(CO)OC1n1nc(SCc2ccccc2)c(=O)[nH]c1=O (stereo unspecified) | > 100 | > 100 | > 100 | > 100 | > 100 | > 100 | > 100 | > 100 | > 100 | > 100 | > 100 | > 100 | > 100 | > 100 | > 100 | > 100 | > 100 | > 100 | > 100
O=C(CC(C(=O)c1cccs1)c1ccsc1)c1ccc(Cl)cc1 (stereo unspecified) | > 100 | > 100 | > 100 | > 100 | > 100 | > 100 | > 100 | > 100 | > 100 | > 100 | > 100 | > 100 | > 100 | > 100 | > 100 | > 100 | > 100 | > 100 | > 100
CSc1ccc(/C=C/C(=O)c2nc3ccccc3[nH]2)cc1 | 93.6 | > 100 | 36.8 | 31.5 | 64.1 | 54.4 | > 100 | 45.2 | 29.7 | 37.7 | 57.8 | 89.5 | 43.2 | 13.2 | 13.4 | 68.6 | 76.9 | > 100 | 43.1
CC(=O)O[C@H]1C[C@H]2[C@@H]([C@H](OC(C)=O)C[C@@H]3CC4(CC[C@@]32C)OOC2(CCCCC2)OO4)[C@@H]2CC[C@H]([C@H](C)CCC(N)=O)[C@@]12C | 3.47 | 9.87 | 9.67 | 6.27 | 4.95 | 3.23 | 9.66 | 5.06 | 3.84 | 4.48 | 5.24 | 2.83 | 3.12 | 3.52 | 2.7 | 4.15 | 4.21 | 6.02 | 3.81
O=C(O)c1[nH]c(=O)[nH]c(=O)c1CN1CCCCC1 | > 100 | > 100 | > 100 | > 100 | > 100 | > 100 | > 100 | > 100 | > 100 | > 100 | > 100 | > 100 | > 100 | > 100 | > 100 | > 100 | > 100 | > 100 | > 100
CCOC(=O)c1ccc(OCc2nc3cc(C(F)(F)F)ccc3nc2-c2ccccc2)cc1 | > 100 | > 100 | > 100 | > 100 | > 100 | > 100 | > 100 | > 100 | > 100 | > 100 | > 100 | > 100 | > 100 | > 100 | > 100 | > 100 | > 100 | > 100 | > 100
Cc1ccc2c(=O)cc(-c3cc4ccccc4s3)[nH]c2n1 | > 100 | > 100 | > 100 | > 100 | > 100 | > 100 | > 100 | > 100 | 48 | > 100 | > 100 | > 100 | > 100 | > 100 | > 100 | > 100 | > 100 | > 100 | > 100
